{
  "source": "patent US6784314B2",
  "about": "“Process for producing amine derivatives” (Takeda Chemical Industries, Ltd., priority 2000, dated 2004)",
  "key": {"[1]": {"assay": "stability on storage for a long time under usual conditions", "format": "physicochemical"}, "β-amyloid protein": {"tested_on": "β-amyloid protein", "assay": "action of inhibiting the production and secretion of β-amyloid protein"}},
  "note": "Where a name gives a salt, the structure may show the parent alone.",
  "data": [
    {"smiles": "CN(C)CC[C@@H]1CCc2cc(OCc3ccc(-c4ccccc4)cc3)ccc2C1", "note": "[Compound (V′), (R)-(+)-6-(4-biphenylyl)methoxy-2-[2-(N,N-dimethylamino)ethyl]tetralin hydrochloride monohydrate]", "values": [
      {"measurement": "stability (denaturation after storage)", "setting": "[1]", "value": "very excellent in stability"},
      {"measurement": "toxicity", "setting": "toxicity", "value": "low toxic"},
      {"measurement": "transfer to the brain", "setting": "transfer to the brain", "value": "excellent in transfer to the brain"},
      {"measurement": "action of inhibiting the production and secretion of β-amyloid protein", "setting": "β-amyloid protein", "value": "excellent"}
    ]}
  ]
}
